Assay [1] concerns the target T1, Amine oxidase [flavin-containing] B (Homo sapiens, UniProt P27338).
T1 sequence (P27338 whole entry): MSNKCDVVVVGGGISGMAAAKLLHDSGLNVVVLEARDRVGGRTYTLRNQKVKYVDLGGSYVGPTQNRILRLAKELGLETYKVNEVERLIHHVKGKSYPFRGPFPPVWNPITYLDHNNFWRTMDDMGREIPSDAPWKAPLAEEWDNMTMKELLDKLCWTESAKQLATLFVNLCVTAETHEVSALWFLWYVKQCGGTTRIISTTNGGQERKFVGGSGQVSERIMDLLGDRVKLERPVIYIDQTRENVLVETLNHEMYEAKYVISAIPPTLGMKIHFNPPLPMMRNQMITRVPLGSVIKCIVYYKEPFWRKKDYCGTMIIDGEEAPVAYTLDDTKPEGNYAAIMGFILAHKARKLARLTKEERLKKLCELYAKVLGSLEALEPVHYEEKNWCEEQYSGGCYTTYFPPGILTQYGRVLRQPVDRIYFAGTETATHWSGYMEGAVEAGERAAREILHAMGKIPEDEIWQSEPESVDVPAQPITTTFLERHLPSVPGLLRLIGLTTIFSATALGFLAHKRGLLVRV
Briefly: biochemical. Type of assay: cell-based.
Description: Inhibition of human recombinant MAO-B expressed in baculovirus-infected insect cells using p-tyraimne substrate

The target in assay [2] is T2, Amine oxidase [flavin-containing] A (Homo sapiens, UniProt P21397).
T2 sequence (P21397 whole entry): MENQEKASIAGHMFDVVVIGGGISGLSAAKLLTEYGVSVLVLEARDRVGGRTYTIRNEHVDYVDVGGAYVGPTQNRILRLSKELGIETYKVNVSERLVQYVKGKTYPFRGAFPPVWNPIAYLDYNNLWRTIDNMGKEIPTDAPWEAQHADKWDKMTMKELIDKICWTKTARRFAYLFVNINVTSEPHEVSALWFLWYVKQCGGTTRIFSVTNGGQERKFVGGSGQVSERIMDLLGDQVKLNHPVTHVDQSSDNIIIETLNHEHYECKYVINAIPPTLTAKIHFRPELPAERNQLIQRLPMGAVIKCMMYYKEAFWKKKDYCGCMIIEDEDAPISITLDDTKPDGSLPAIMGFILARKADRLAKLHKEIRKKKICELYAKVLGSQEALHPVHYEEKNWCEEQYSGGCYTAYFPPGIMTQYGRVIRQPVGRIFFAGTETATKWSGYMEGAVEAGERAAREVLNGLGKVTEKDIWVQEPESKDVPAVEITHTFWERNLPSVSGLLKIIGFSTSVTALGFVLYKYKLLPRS
Briefly: Inhibition of human recombinant MAO-A expressed in baculovirus-infected insect cells using p-tyraimne substrate.

Assay [3] has as its target T3, Amine oxidase [flavin-containing] A (Rattus norvegicus, UniProt P21396).
T3 sequence (P21396 whole entry): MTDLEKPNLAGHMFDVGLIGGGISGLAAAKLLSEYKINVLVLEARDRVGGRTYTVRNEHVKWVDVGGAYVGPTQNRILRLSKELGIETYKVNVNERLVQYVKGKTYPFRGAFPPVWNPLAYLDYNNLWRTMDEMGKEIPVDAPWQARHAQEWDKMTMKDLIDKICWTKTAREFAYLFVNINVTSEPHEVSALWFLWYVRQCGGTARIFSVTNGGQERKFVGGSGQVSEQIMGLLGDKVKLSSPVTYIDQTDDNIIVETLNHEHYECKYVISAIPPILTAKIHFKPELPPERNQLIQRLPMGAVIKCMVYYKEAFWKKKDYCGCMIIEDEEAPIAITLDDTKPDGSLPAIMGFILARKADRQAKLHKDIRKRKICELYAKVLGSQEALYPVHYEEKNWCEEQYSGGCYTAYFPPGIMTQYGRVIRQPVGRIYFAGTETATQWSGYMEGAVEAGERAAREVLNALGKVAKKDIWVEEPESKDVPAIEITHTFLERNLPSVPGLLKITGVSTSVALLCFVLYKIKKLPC
Briefly: Inhibition of rat MAO-A from mitochondria-enriched rat liver fractions using p-tyraimne substrate.

The species entered for the next assay is Homo sapiens. Put plainly: Selectivity index, ratio of IC50 for human recombinant MAO-A to IC50 for human recombinant MAO-B.
Assay [4] addresses T4, Amine oxidase [flavin-containing] B (Rattus norvegicus, UniProt P19643).
T4 sequence (P19643 whole entry): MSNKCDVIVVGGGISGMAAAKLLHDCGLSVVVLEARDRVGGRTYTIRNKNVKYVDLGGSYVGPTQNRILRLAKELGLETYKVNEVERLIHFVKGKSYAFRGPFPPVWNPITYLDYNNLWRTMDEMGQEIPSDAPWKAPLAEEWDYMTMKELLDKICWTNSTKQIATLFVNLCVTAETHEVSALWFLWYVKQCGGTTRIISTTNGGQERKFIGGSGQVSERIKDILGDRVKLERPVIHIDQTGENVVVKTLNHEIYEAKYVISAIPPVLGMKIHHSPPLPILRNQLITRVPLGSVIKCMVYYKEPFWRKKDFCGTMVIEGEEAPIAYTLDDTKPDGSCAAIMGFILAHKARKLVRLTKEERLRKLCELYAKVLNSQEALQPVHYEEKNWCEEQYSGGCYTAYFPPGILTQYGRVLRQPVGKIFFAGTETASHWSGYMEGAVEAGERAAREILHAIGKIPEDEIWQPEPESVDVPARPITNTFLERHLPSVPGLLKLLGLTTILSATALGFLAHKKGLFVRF
Put plainly: Inhibition of rat MAO-B from mitochondria-enriched rat liver fractions using p-tyraimne substrate.

A value given as a limit tells only on which side of the number the result lay.

Consider `O=C(Cc1ccc(Cl)c(Cl)c1)Nc1ccc2[nH]ncc2c1`, for which the IC50 is 0.882 µM in assay [1], > 10 µM in assay [2] (read-out: IC50), > 10 µM in assay [3] and > 10 µM in assay [4]. The Ratio IC50 in the assay listed under Homo sapiens is > 11.
Take `O=C(Nc1ccc2[nH]ncc2c1)c1cccc(Cl)c1Cl`: the IC50 was 2.59 µM in assay [1], > 10 µM in assay [2] (read-out: IC50), > 10 µM in assay [3] and > 10 µM in assay [4].
Take `O=C(Nc1ccc(O)c(Cl)c1)c1ccc2cn[nH]c2c1`: the IC50 is < 10 µM in assay [1], > 10 µM in assay [2] (read-out: IC50), > 10 µM in assay [3] and 3.28 µM in assay [4].
On to `O=C(Nc1cc(Cl)cc(Cl)c1)c1ccc2[nH]ncc2c1`, for which the IC50 in assay [1] is 0.00275 µM; in assay [2] (read-out: IC50), > 10 µM; in assay [3], > 10 µM; in assay [4] it was 0.00273 µM. Besides, the Ratio IC50 in the assay listed under Homo sapiens was 3640.
Consider `O=C(Nc1ccc(Cl)c(Cl)c1)c1ccc2nccn2c1`, for which the IC50 in assay [1] is 0.141 µM; in assay [2] (read-out: IC50) it was > 10 µM; in assay [3] it was > 10 µM; in assay [4], 1.14 µM. Also, the Ratio IC50 in the assay listed under Homo sapiens was determined as 71.
On to `O=C(Nc1ccc(Cl)c(Cl)c1)c1ccc2nncn2c1`, for which the IC50 in assay [1] is 2.27 µM; in assay [2] (read-out: IC50) it was > 10 µM; in assay [3], > 10 µM; in assay [4], > 10 µM. Also, the Ratio IC50 in the assay filed under Homo sapiens is > 4.
Take `Cn1ccc2cc(C(=O)Nc3ccc(Cl)c(Cl)c3)ccc21`: the half-inhibitory concentration (IC50) in assay [1] was 0.00226 µM; in assay [2] (read-out: IC50), > 10 µM; in assay [3] it was > 10 µM; in assay [4], 0.00111 µM. Besides, in the assay filed under Homo sapiens, the Ratio IC50 was found to be 4420.
As for `COc1ccc(NC(=O)c2ccc3[nH]ncc3c2)cc1OC`, the Ratio IC50 in the assay listed under Homo sapiens is > 54.
Take `O=C(Nc1ccc2cn[nH]c2c1)c1cnc(N2CCOCC2)c(Cl)c1`: the 50% inhibitory concentration (IC50) is 0.22 µM in assay [1], > 10 µM in assay [2] (read-out: IC50), > 10 µM in assay [3] and 1.99 µM in assay [4]. Also, the Ratio IC50 in the assay listed under Homo sapiens is > 9.
Take `O=C(Nc1ccc(Cl)c(F)c1)c1ccc2cn[nH]c2c1`: the IC50 in assay [1] is 0.316 µM; in assay [2] (read-out: IC50) it was > 10 µM; in assay [3], > 10 µM; in assay [4] it was 2.67 µM. The Ratio IC50 in the assay listed under Homo sapiens was > 31.
On to `O=C(Nc1ccc(Cl)c(O)c1)c1ccc2[nH]ncc2c1`, for which the Ratio IC50 in the assay listed under Homo sapiens stood at 80.
For `O=C(Nc1ccc(Cl)c(Cl)c1)c1ccc2[nH]ccc2c1`, the IC50 worked out at 1.3 µM in assay [2] (read-out: IC50), 6.79 µM in assay [3] and 0.00101 µM in assay [4].
Consider `O=C(Nc1ccccc1)c1ccc2[nH]ncc2c1`, for which the IC50 is 0.117 µM in assay [1], > 10 µM in assay [2] (read-out: IC50), > 10 µM in assay [3] and 0.708 µM in assay [4]. For the same compound, in the assay filed under Homo sapiens, the Ratio IC50 was > 86.
In the case of `Cn1cc(C(=O)Nc2ccc3[nH]ncc3c2)ccc1=O`, the IC50 in assay [1], in assay [2] (read-out: IC50), in assay [3] and in assay [4] was > 10 µM throughout.
For `COc1cc(NC(=O)c2ccc3[nH]ncc3c2)ccc1Cl`, the Ratio IC50 in the assay filed under Homo sapiens is 2020.
On the same count and under the same terms, with `COc1ccc(NC(=O)c2ccc3[nH]ncc3c2)cc1Cl` the figure was 2920.
`O=C(NCc1ccc(Cl)c(Cl)c1)c1ccc2[nH]ncc2c1`: the IC50 was 0.388 µM in assay [1], > 10 µM in assay [2] (read-out: IC50), > 10 µM in assay [3] and 0.837 µM in assay [4]. For the same compound, in the assay filed under Homo sapiens, the Ratio IC50 is > 25.
With `O=C(Nc1ccc(Cl)c(O)c1)c1ccc2cn[nH]c2c1`, the concentration for half-maximal inhibition (IC50) in assay [1] is 6.22 µM; in assay [2] (read-out: IC50), > 10 µM; in assay [3] it was > 10 µM; in assay [4], > 10 µM. In addition, the Ratio IC50 in the assay filed under Homo sapiens was 2.
As to `O=C(Nc1ccc2[nH]ncc2c1)c1ccc(Cl)c(Cl)c1`, the concentration for half-maximal inhibition (IC50) in assay [1] is 0.0124 µM; in assay [2] (read-out: IC50) it was > 10 µM; in assay [3], > 10 µM; in assay [4], 0.138 µM. Besides, the Ratio IC50 in the assay filed under Homo sapiens is 806.
Take `O=C(Nc1ccc(F)c(F)c1)c1ccc2[nH]ncc2c1`: the Ratio IC50 in the assay filed under Homo sapiens came to 6290.
For the compound `Clc1ccc(/N=C/c2ccc3[nH]ncc3c2)cc1Cl`, the results for the IC50 in assay [2] (read-out: IC50) and in assay [3] were < 10 µM and > 10 µM, respectively.
Consider `O=C(Nc1ccc(Cl)c(F)c1)c1ccc2[nH]ncc2c1`, for which the 50% inhibitory concentration (IC50) in assay [2] (read-out: IC50) was > 10 µM. The Ratio IC50 in the assay filed under Homo sapiens worked out at 15000.
For the compound `O=[N+]([O-])c1ccc2[nH]ncc2c1`, the IC50 in assay [1] was 2.5 µM; in assay [2], “Not Active”.
As for `Cn1ncc2cc(/C=N/c3ccc(Cl)c(Cl)c3)ccc21`, the concentration for half-maximal inhibition (IC50) in assay [1] is 0.00103 µM; in assay [2] (read-out: IC50) it was < 10 µM; in assay [3], > 10 µM; in assay [4], 0.00455 µM. Also, in the assay filed under Homo sapiens, the Ratio IC50 was 9710.
For `COc1ccc(NC(=O)c2ccc3cn[nH]c3c2)cc1Cl`, the IC50 was 1.28 µM in assay [1], > 10 µM in assay [2] (read-out: IC50), > 10 µM in assay [3] and < 10 µM in assay [4]. The Ratio IC50 in the assay filed under Homo sapiens amounted to 8.
For `O=C(Nc1ccc(O)c(Cl)c1)c1ccc2[nH]ncc2c1`, the Ratio IC50 in the assay filed under Homo sapiens is > 81.
As for `COc1cc(NC(=O)c2ccc3cn[nH]c3c2)ccc1Cl`, the IC50 is 2.76 µM in assay [1], > 10 µM in assay [2] (read-out: IC50), > 10 µM in assay [3] and > 10 µM in assay [4]. For the same compound, in the assay filed under Homo sapiens, the Ratio IC50 was determined as 4.
As for `O=C(Nc1ccc(F)c(F)c1)c1ccc2cn[nH]c2c1`, the IC50 in assay [1] was 1.3 µM; in assay [2] (read-out: IC50), > 10 µM; in assay [3], > 10 µM; in assay [4] it was < 10 µM. Moreover, the Ratio IC50 in the assay listed under Homo sapiens is > 7.
Consider `O=C(Nc1cc(Cl)cc(Cl)c1)c1ccc2cn[nH]c2c1`, for which the IC50 is 0.335 µM in assay [1], > 10 µM in assay [2] (read-out: IC50), > 10 µM in assay [3] and 0.423 µM in assay [4]. In the assay filed under Homo sapiens, the Ratio IC50 is > 29.
`O=C(Nc1ccc2[nH]ncc2c1)c1c(F)cccc1Cl`: the IC50 was 3.3 µM in assay [1], > 10 µM in assay [2] (read-out: IC50), > 10 µM in assay [3] and > 10 µM in assay [4].
Regarding `O=C(Nc1cnc(Cl)c(Cl)c1)c1ccc2[nH]ncc2c1`, the Ratio IC50 in the assay filed under Homo sapiens was 1840.
Regarding `O=C(Nc1ccc(F)c(Cl)c1)c1ccc2cn[nH]c2c1`, the IC50 was 0.234 µM in assay [1], > 10 µM in assay [2] (read-out: IC50), > 10 µM in assay [3] and 1.07 µM in assay [4]. Besides, the Ratio IC50 in the assay listed under Homo sapiens is > 42.
As for `COc1ccc(NC(=O)c2ccc3cn[nH]c3c2)cc1OC`, the IC50 in assay [1], in assay [2] (read-out: IC50), in assay [3] and in assay [4] was > 10 µM throughout.
`O=C(Nc1ccc(Cl)c(Cl)c1)c1ccc2cn[nH]c2c1`: the concentration for half-maximal inhibition (IC50) in assay [1] is 0.0671 µM; in assay [2] (read-out: IC50), 3.31 µM; in assay [3] it was < 10 µM; in assay [4], 0.466 µM. Also, the Ratio IC50 in the assay filed under Homo sapiens is > 49.

In general, IC50 refers to the concentration at which inhibition is half-maximal.

The values above are taken from ChEMBL document CHEMBL3352205, “Indazole- and indole-5-carboxamides: selective and reversible monoamine oxidase B inhibitors with subnanomolar potency” (J Med Chem, 2014).
